The results in this text go back to publication PMC11700832, “Small-molecule MMRi36 induces apoptosis in p53-mutant lymphomas by targeting MDM2/MDM4/XIAP for degradation” (Frontiers in Oncology, 2024).

In the assay the target is T1, MDM2 (MDM2-MDM4 RING domain heterodimer) (Homo sapiens, UniProt O15151+Q00987).
T1 construct: RING domain heterodimers of MDM2-MDM4, co-expressed in E. coli; with MDM4 (RING domain)
Description: microscale thermophoresis; thermofluor (Tm […] to […] °C); in vitro ubiquitination activation. Format: binding.

T1 sequence (Q00987 428-491 limits assumed): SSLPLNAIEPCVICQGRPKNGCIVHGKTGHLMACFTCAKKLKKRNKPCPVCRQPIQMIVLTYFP
T1 sequence (O15151 428-490 limits assumed): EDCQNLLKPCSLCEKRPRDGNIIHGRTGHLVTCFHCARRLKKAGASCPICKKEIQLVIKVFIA

On to `O=C1Nc2ccc(Br)cc2C12NN=C(c1ccccc1)S2` (stereo not shown) [MMRi36], for which the Kd (as a rule, a measure of binding affinity in units of concentration) is ~0.308 µM.
